Test results from US6565895B2, “Bismuth compounds for the treatment and prevention of mucositis” (GelTex Pharmaceuticals, Inc., priority 2000, dated 2003).

Test system: oral mucositis in a hamster model following irradiation
Assay: Hamster model of radiation-induced oral mucositis (mucositis score)
Assay type: in vivo, Golden Syrian hamsters
[1] = solution containing 3.5 mg/ml, 0.5 ml into left cheek pouch three times per day, Day 0 to Day 19, single radiation dose 35-38 Gy
[2] = solution containing 17.5 mg/ml, 0.5 ml into left cheek pouch three times per day, Day 0 to Day 19, single radiation dose 35-38 Gy

Description: Briefly, male Golden Syrian hamsters (Charles River Laboratories), aged 5 to 6 weeks, with body weights of approximately 90 g at project commencement, were used. Animals were individually numbered using an ear punch and housed in small groups of approximately 6 animals per cage. Animals were acclimatized for at least one week prior to project commencement. During this period, the animals were observed daily in order to reject animals that presented in poor condition. Animals were fed with a standard hamster chow and water ad libitum.
Mucositis was induced using an acute radiation protocol. A single dose of radiation (35-38 Gy/dose) was administered to all animals on Day 0. Radiation was generated with a 250 kilovolt potential (15 mA) source at a focal distance of 50 cm, hardened with a 0.35 mm Cu filtration system. […] Prior to irradiation, animals were anesthetized with an intraperitoneal injection of sodium pentobarbital (80 mg/kg). The left buccal pouch was everted, fixed and isolated using a lead shield.
All animals were dosed with test material three times per day. A needleless tuberculin syringe containing 0.5 ml of the test compound was inserted into the left cheek pouch and the drug deposited into the pouch. Dosing began on Day 0 and continued until Day 19.
The mucositis score, weight change and survival were measured as outcomes in this study. For the evaluation of mucositis, the animals were anesthetized with inhalation anesthetics, and the left pouch everted. Mucositis was scored visually by comparison to a validated photographic scale, ranging from 0 for normal to 5 for severe ulceration (clinical scoring). In descriptive terms, this scale is defined as follows:
A score of 1-2 is considered to represent a mild stage of the disease, whereas a score of 3-5 is considered to indicate moderate to severe mucositis. Following visual scoring, a photograph was taken of each animal's mucosa using a standardized technique. At the conclusion of the experiment, all films were developed and the photographs randomly numbered. At least two independent trained observers graded the photographs in blinded fashion using the above-described scale (blinded scoring).

With `O=C([O-])c1ccccc1.O=C([O-])c1ccccc1.O=C([O-])c1ccccc1.[Bi+3]` [bismuth benzoate, Bismuth Benzoate] the “improvement in mucositis scores (time with score of three or higher)” value (“improvement in mucositis scores” below) [1] was “showed improvement in their mucositis scores”.
`O=[N+]([O-])[O-].O=[N+]([O-])[O-].O=[N+]([O-])[O-].O=[N+]([O-])[O-].[Bi+3].[Bi+3].[Bi+3].[Bi+3].[Bi+3].[O-2].[OH-].[OH-].[OH-].[OH-].[OH-].[OH-].[OH-].[OH-].[OH-]` [bismuth subnitrate] was tested, and the “improvement in mucositis scores” value [2] was “did not show a statistically significant improvement”.
With Bismuth Ascorbate the “improvement in mucositis scores” value (solution containing 1.75 mg/ml, 0.5 ml into left cheek pouch three times per day, Day 0 to Day 19, single radiation dose 35-38 Gy) was “showed improvement in their mucositis scores”.
In the case of `O=C([O-])[O-].[Bi+3].[Bi+3].[O-2].[O-2]` [bismuth subcarbonate], the “improvement in mucositis scores” value [2] is reported as “did not show a statistically significant improvement”.
In the case of bismuth (III) oxide, the “improvement in mucositis scores” value [2] is reported as “did not show a statistically significant improvement”.
For `O=C([O-])[C@H]([O-])[C@@H]([O-])C(=O)[O-].[Bi+3].[K+]` [bismuth potassium tartrate], the “improvement in mucositis scores” value [2] was “did not show a statistically significant improvement”.
With `N[C@@H](CCC(=O)N[C@@H](CS)C(=O)NCC(=O)O)C(=O)O.[Bi]` [bismuth glutathione, Bismuth Glutathione] the “improvement in mucositis scores” value (hamster, in vivo) was “showed improvement in their mucositis scores”.
For `O=C([O-])CC(O)(CC(=O)[O-])C(=O)[O-].[Bi+3]` [bismuth citrate], the “improvement in mucositis scores” value [1] was “showed improvement in their mucositis scores”.
In the case of bismuth subgallate, the “improvement in mucositis scores” value [2] is reported as “did not show a statistically significant improvement”.
For `O=C([O-])c1ccccc1[O-].[Bi+3].[OH-]` [bismuth salicylate basic], the “improvement in mucositis scores” value [1] was “showed improvement in their mucositis scores”.
